# Assay results reported in ChEMBL document CHEMBL4387733, “Design, synthesis and biological evaluation of indane derived GPR40 agoPAMs” (Bioorg Med Chem Lett, 2019).
# Active and inactive are the calls of the source. No cut-off for these calls is given here.
# Experiments:
# [1] = target: Cysteinyl leukotriene receptor 2 (Homo sapiens) (UniProt Q9NS75); test: Displacement of [3H]LTD4 from human full-length recombinant cysteinyl leukotriene type-2 receptor expressed in HEK293 cells at 10 uM measured after 60 mins by scintillation counting method relative to control; format: cell-based
# Chain of Cysteinyl leukotriene receptor 2 (Homo sapiens) (Q9NS75 whole entry): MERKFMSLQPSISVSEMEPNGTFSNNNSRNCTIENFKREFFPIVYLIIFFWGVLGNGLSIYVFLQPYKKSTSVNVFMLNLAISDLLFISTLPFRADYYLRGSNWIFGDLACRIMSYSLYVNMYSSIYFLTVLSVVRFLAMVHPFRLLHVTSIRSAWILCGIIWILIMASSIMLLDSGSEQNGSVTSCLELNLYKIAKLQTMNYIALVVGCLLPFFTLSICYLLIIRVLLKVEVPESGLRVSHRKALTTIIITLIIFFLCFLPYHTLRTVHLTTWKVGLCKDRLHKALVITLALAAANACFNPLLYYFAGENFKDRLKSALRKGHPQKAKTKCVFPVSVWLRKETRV
# [2] = target: Sodium-dependent serotonin transporter (Homo sapiens) (UniProt P31645); test: Inhibition of human SERT at 10 uM relative to control
# Chain of Sodium-dependent serotonin transporter (Homo sapiens) (P31645 whole entry, looked up): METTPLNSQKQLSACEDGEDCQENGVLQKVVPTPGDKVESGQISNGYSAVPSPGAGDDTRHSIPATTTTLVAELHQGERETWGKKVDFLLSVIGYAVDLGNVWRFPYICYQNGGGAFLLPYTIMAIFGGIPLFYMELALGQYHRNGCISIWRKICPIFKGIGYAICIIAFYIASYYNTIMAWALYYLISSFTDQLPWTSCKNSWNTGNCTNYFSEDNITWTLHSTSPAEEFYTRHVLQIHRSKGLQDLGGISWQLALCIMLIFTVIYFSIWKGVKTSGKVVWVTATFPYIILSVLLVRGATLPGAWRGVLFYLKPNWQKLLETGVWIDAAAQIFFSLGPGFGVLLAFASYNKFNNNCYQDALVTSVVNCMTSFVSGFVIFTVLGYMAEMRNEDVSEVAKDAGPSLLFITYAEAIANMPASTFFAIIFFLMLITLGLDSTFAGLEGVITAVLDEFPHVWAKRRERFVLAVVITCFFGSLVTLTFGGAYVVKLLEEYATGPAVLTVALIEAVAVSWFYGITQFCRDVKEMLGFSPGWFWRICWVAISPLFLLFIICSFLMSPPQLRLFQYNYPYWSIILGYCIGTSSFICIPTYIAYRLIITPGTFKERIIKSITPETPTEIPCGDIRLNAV
# [3] = target: 5-hydroxytryptamine receptor 2B (Homo sapiens) (UniProt P41595); test: Inhibition of human 5-HT2B receptor at 10 uM relative to control
# Chain of 5-hydroxytryptamine receptor 2B (Homo sapiens) (P41595 whole entry): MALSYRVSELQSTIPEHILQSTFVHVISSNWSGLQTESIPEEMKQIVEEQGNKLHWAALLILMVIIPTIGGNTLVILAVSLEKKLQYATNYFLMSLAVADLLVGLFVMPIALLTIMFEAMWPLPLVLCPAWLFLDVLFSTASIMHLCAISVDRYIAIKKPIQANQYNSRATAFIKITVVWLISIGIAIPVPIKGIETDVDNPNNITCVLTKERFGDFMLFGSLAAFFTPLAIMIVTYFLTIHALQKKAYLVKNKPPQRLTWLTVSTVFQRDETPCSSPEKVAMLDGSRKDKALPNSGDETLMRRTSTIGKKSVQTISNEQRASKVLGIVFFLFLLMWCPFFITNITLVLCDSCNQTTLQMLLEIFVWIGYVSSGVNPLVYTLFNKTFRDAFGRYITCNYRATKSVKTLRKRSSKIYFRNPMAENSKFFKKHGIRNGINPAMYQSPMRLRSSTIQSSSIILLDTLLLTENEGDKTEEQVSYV
# [4] = target: Free fatty acid receptor 1 (Homo sapiens, UniProt O14842); test: Positive allosteric modulation of recombinant human GPR40 expressed in HEK293 cells assessed as increase in [3H]-myo-inositol phosphate accumulation measured after 60 mins in presence of 100% human serum by microbeta counting method; format: functional, cell-based
# [5] = target: Prostaglandin G/H synthase 1 (Homo sapiens) (UniProt P23219); test: Inhibition of human recombinant cyclooxygenase COX1 expressed in baculovirus infected Sf9 cells at 10 uM using arachidonic acid as substrate preincubated for 15 mins followed by substrate addition and measured after 3 mins by ampliflu red reagent-based spectrofluorimetric method relative to control
# [6] = target: Muscarinic acetylcholine receptor M3 (Homo sapiens) (UniProt P20309); test: Inhibition of human muscarinic M3 receptor at 10 uM relative to control
# [7] = target: 5-hydroxytryptamine receptor 1A (Homo sapiens) (UniProt P08908); test: Inhibition of human 5HT1A receptor at 10 uM relative to control
# [8] = target: D(2) dopamine receptor (Homo sapiens) (UniProt P14416); test: Inhibition of human dopamine D2s receptor at 10 uM relative to control
# Chain of D(2) dopamine receptor (Homo sapiens) (P14416 whole entry): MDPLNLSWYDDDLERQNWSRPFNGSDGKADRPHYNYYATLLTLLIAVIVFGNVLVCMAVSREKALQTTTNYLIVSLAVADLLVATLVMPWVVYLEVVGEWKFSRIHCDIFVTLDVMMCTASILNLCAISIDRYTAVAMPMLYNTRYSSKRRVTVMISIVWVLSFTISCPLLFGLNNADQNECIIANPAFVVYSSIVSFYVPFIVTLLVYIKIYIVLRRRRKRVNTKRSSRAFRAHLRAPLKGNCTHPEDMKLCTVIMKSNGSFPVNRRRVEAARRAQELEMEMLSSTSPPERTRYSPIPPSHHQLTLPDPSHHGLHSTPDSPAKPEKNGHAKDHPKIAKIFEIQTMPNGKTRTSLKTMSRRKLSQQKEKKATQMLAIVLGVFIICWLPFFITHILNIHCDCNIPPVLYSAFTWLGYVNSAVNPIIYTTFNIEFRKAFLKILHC
# Caspase-8 (Homo sapiens) = Caspase-8 (Homo sapiens) (UniProt Q14790); test: Inhibition of human full-length recombinant caspase 8 expressed in Escherichia coli at 10 uM using Ac-IETD-AMC as substrate preincubated for 15 mins followed by substrate addition and measured after 60 mins by spectrofluorimetric analysis relative to control
# [9] = target: Kappa-type opioid receptor (Homo sapiens) (UniProt P41145); test: Inhibition of human kappa type opioid receptor at 10 uM relative to control
# [10] = target: Alpha-2C adrenergic receptor (Homo sapiens) (UniProt P18825); test: Inhibition of human adrenergic alpha2C receptor at 10 uM relative to control
# [11] = target: Sodium-dependent noradrenaline transporter (Homo sapiens) (UniProt P23975); test: Inhibition of human sodium dependent noradrenaline transporter at 10 uM relative to control
# Caspase-9 (Homo sapiens) = Caspase-9 (Homo sapiens) (UniProt P55211); test: Inhibition of human full-length recombinant caspase 9 expressed in Escherichia coli at 10 uM using Ac-LEHD-AFC as substrate preincubated for 15 mins followed by substrate addition and measured after 60 mins by spectrofluorimetric analysis relative to control
# Mus musculus = species on record: Mus musculus; test: Glucose lowering effect in GPR40 knockout mouse assessed as increase in GLP-1 level; format: functional, organism-based
# [12] = target: Prostaglandin G/H synthase 2 (Homo sapiens) (UniProt P35354); test: Inhibition of human recombinant cyclooxygenase COX2 expressed in baculovirus infected Sf9 cells at 10 uM using arachidonic acid as substrate preincubated for 15 mins followed by substrate addition and measured after 3 mins by ampliflu red reagent-based spectrofluorimetric method relative to control
# [13] = target: Prostaglandin E2 receptor EP1 subtype (Homo sapiens) (UniProt P34995); test: Inhibition of human prostanoid EP1 receptor at 10 uM relative to control
# [14] = target: Histamine H4 receptor (Homo sapiens) (UniProt Q9H3N8); test: Inhibition of human histamine H4 receptor at 10 uM relative to control
# [15] = target: Acetylcholinesterase (Homo sapiens) (UniProt P22303); test: Inhibition of human recombinant full length acetylcholine esterase expressed in HEK293 cells at 10 uM using acetylcholine as substrate preincubated for 15 mins followed by substrate addition measured after 20 mins by spectrophotometric analysis
# [16] = target: 5-hydroxytryptamine receptor 2C (Homo sapiens) (UniProt P28335); test: Inhibition of human 5-HT2C receptor at 10 uM relative to control
# [17] = target: Histamine H1 receptor (Homo sapiens) (UniProt P35367); test: Inhibition of human histamine H1 receptor at 10 uM relative to control
# [18] = target: Mitogen-activated protein kinase 3 (Homo sapiens) (UniProt P27361); test: Inhibition of human recombinant full-length ERK1 expressed in Escherichia coli at 10 uM using myelin basic protein as substrate preincubated for 30 mins followed by substrate addition and measured after 30 mins in the presence of [gamma32P]ATP by scintillation counting method relative to control
# [19] = target: Mu-type opioid receptor (Homo sapiens) (UniProt P35372); test: Inhibition of human mu type opioid receptor at 10 uM relative to control
# Chain of Mu-type opioid receptor (Homo sapiens) (P35372 whole entry): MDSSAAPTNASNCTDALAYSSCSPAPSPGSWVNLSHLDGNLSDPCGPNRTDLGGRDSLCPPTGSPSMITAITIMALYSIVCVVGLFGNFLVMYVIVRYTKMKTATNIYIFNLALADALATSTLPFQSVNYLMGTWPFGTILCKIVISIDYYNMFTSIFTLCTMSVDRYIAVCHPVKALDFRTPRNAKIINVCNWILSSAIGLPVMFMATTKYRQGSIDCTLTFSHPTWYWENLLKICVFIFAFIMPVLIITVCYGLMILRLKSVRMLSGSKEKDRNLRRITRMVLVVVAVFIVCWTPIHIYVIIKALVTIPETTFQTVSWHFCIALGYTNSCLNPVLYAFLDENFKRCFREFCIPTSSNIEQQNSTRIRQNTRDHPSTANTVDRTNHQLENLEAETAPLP
# [20] = target: Alpha-2A adrenergic receptor (Homo sapiens) (UniProt P08913); test: Inhibition of human adrenergic alpha2A receptor at 10 uM relative to control
# Rattus norvegicus [21] = species on record: Rattus norvegicus; test: Inhibition of rat P2Y receptor at 10 uM relative to control
# [22] = target: Sodium-dependent dopamine transporter (Homo sapiens) (UniProt Q01959); test: Inhibition of human sodium dependent dopamine transporter at 10 uM relative to control
# [23] = target: GABA-A receptor; anion channel (Rattus norvegicus) (UniProt O09028+P15431+P18506+P18508+P19969+P20236+P23574+P23576+P28471+P28473+P30191+P62813+P63079+P63138+Q91ZM7+Q9ES14); test: Inhibition of rat GABAA receptor at 10 uM relative to control; format: protein-complex assay
# [24] = target: MAP/microtubule affinity-regulating kinase 3 (Homo sapiens) (UniProt P27448); test: Inhibition of human full-length recombinant MARK3 expressed in insect cells at 10 uM using CHKtide as substrate preincubated for 15 mins followed by substrate addition and measured after 30 mins in presence of [gamma32P]ATP by scintillation counting analysis relative to control
# Chain of MAP/microtubule affinity-regulating kinase 3 (Homo sapiens) (P27448 whole entry, looked up): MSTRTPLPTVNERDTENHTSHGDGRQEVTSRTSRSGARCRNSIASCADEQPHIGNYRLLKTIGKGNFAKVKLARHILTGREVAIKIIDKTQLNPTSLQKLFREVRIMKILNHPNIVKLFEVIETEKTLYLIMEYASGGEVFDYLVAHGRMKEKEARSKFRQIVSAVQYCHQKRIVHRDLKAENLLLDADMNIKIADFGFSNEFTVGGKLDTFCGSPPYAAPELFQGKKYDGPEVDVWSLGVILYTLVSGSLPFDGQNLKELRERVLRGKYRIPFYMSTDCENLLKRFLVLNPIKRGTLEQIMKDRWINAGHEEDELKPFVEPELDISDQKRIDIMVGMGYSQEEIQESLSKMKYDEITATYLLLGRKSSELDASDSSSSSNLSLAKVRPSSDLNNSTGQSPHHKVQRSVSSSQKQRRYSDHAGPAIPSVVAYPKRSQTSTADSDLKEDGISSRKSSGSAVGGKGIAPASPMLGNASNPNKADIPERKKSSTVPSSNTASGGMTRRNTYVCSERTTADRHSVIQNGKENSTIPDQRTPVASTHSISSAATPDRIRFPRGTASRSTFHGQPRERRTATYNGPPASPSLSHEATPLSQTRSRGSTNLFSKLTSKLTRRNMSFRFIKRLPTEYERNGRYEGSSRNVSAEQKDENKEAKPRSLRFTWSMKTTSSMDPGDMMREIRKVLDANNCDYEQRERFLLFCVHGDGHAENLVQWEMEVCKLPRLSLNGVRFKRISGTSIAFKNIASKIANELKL
# [25] = target: Cathepsin G (Homo sapiens) (UniProt P08311); test: Inhibition of human neutrophil cathepsin G at 10 uM using Suc-Ala-Ala-Pro-Phe-AMC as substrate preincubated for 15 mins followed by substrate addition and measured after 30 mins by spectrofluorimetric analysis relative to control
# Chain of Cathepsin G (Homo sapiens) (P08311 whole entry): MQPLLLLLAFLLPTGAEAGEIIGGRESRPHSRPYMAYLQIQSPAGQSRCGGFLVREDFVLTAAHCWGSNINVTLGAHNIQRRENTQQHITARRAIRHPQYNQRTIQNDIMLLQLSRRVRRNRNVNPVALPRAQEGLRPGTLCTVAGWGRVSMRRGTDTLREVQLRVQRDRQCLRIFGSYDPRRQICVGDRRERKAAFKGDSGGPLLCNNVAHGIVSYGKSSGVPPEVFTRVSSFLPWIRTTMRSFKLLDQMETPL
# [26] = target: D(1A) dopamine receptor (Homo sapiens) (UniProt P21728); test: Inhibition of human dopamine D1 receptor at 10 uM relative to control
# Chain of D(1A) dopamine receptor (Homo sapiens) (P21728 whole entry): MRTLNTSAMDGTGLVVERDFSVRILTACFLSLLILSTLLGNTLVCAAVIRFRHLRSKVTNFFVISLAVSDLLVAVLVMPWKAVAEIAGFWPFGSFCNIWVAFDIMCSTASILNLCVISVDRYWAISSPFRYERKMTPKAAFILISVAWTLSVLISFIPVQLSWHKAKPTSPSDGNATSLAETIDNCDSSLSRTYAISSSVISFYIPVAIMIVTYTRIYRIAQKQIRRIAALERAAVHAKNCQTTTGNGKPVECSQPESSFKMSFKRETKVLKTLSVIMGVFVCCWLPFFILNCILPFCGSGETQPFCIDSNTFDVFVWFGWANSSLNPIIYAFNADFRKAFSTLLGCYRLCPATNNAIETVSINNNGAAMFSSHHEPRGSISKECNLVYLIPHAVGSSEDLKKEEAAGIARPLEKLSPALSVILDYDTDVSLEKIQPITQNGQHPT
# [27] = target: 5-hydroxytryptamine receptor 2A (Homo sapiens) (UniProt P28223); test: Inhibition of human 5-HT2A receptor at 10 uM relative to control
# Chain of 5-hydroxytryptamine receptor 2A (Homo sapiens) (P28223 whole entry): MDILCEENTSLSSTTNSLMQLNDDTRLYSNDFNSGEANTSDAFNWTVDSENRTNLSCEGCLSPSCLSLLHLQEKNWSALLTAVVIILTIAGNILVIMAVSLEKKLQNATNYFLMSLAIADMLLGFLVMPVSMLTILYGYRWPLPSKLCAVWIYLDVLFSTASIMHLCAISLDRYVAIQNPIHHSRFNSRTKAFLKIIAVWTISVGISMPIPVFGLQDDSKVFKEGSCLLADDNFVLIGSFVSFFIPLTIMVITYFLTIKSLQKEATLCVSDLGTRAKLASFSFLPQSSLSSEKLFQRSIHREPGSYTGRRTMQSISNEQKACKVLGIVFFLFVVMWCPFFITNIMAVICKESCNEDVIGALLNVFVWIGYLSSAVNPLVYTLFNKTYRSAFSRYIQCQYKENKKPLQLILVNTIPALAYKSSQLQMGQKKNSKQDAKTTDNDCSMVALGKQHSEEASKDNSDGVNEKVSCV
# [28] = target: Prostaglandin E2 receptor EP3 subtype (Homo sapiens) (UniProt P43115); test: Inhibition of human prostanoid EP3 receptor at 10 uM relative to control
# Chain of Prostaglandin E2 receptor EP3 subtype (Homo sapiens) (P43115 whole entry): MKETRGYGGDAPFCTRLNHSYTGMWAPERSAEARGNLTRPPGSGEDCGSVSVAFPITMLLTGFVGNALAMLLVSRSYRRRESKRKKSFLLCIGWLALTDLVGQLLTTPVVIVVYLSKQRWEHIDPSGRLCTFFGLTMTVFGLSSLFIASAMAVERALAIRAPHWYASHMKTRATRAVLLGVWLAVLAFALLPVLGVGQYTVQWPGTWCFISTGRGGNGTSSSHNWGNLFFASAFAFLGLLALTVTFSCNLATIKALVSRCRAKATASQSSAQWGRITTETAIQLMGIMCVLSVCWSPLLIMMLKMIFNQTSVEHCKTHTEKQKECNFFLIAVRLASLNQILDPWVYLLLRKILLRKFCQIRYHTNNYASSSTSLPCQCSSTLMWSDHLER
# [29] = Solubility of the compound in FASSIF; format: physicochemical
# [30] = target: B1 bradykinin receptor (Homo sapiens) (UniProt P46663); test: Displacement of [3H]Kallidin(des-Arg10,Leu9) from human recombinant bradykinin B1 receptor expressed in CHOK1 cells at 10 uM after 60 mins by scintillation counting assay relative to control; format: cell-based
# Chain of B1 bradykinin receptor (Homo sapiens) (P46663 whole entry): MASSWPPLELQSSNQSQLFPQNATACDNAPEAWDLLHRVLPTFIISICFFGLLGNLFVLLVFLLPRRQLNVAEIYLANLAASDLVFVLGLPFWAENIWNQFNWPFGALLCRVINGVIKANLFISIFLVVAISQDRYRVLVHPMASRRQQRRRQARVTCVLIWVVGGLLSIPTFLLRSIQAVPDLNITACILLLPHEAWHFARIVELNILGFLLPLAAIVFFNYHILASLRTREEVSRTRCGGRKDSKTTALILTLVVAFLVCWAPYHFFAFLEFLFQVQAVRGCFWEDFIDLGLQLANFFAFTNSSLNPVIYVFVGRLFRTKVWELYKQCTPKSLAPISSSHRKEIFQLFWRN
# Rattus norvegicus [31] = test: Hypoglycemic activity in Sprague-Dawley rat assessed as reduction in blood glucose AUC at 0.3 mg/kg, po pretreated for 1 hr followed by glucose challenge by OGTT relative to control; format: functional
# [32] = target: Histamine H2 receptor (Homo sapiens) (UniProt P25021); test: Inhibition of human histamine H2 receptor at 10 uM relative to control
structure (smiles),measurement,setting,value
COc1ccc(F)c(-c2ccc(COc3cccc([C@@H](CC(=O)O)C4CC4)c3)cc2C2=CCCC2(C)C)c1,inhibition,[1],61%
same,inhibition,[2],70%
same,inhibition,[3],88%
same,fEC50,[4],0.06 nM
same,inhibition,[5],67%
same,inhibition,[6],60%
same,inhibition,[7],91%
same,inhibition,[8],66%
same,inhibition,Caspase-8 (Homo sapiens),65%
same,inhibition,[9],97%
same,inhibition,[10],99%
same,inhibition,[11],95%
same,inhibition,Caspase-9 (Homo sapiens),89%
same,Activity,Mus musculus,Active
same,inhibition,[12],77%
same,inhibition,[13],95%
same,inhibition,[14],82%
same,inhibition,[15],52%
same,inhibition,[16],94%
same,inhibition,[17],97%
same,inhibition,[18],96%
same,inhibition,[19],99%
same,inhibition,[20],99%
same,inhibition,Rattus norvegicus [21],80%
same,inhibition,[22],97%
same,inhibition,[23],60%
same,inhibition,[24],81%
same,inhibition,[25],53%
same,inhibition,[26],78%
same,inhibition,[27],89%
same,inhibition,[28],77%
same,solubility,[29],166 µM
same,inhibition,[30],63%
same,Activity,Rattus norvegicus [31],Active
same,inhibition,[32],66%
